This note sets out measurements from patent US12023319B2, “Carboxylic acid aromatic amides” (priority 2016, dated 2024).

A word on the IC50: it is the midpoint of a concentration-inhibition curve.

The assay deals with T1, human Bradykinin B1 receptor (Homo sapiens, UniProt P46663).
T1 construct: host or cells: CHO-K1
T1 sequence (P46663 1-353): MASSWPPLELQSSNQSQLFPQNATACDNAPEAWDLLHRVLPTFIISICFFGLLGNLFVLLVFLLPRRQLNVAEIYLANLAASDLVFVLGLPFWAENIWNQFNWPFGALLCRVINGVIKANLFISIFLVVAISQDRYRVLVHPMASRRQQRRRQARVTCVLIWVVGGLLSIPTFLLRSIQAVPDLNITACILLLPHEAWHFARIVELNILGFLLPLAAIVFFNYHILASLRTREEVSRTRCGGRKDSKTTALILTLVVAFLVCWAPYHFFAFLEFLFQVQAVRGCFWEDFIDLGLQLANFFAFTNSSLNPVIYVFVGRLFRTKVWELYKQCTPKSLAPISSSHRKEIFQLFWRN
Briefly: Calcium flux assay (FLIPR), CHO-K1 cells expressing human Bradykinin B1 receptor, absence of 0.1% BSA (hB1 free IC50). The format is cell-based. The note with it: absence of 0.1% BSA in assay buffer. Here is the method: The potency to inhibit the Bradykinin B1 receptor was determined for the Compound Examples of this invention in a cell-based fluorescent calcium-mobilisation assay. The assay measures the ability of Compound Examples to inhibit Bradykinin B1 receptor agonist-induced increase of intracellular free Ca^2+ in the cell line expressing Bradykinin B1 receptor. Specifically, calcium indicator-loaded cells are pre-incubated in the absence or presence of different concentrations of Compound Examples followed by the stimulation with a selective Bradykinin B1 receptor agonist peptide. The change of the intracellular Ca^2+ concentration is monitored with a fluorescent plate reader FLIPR^TETRA® (Molecular Devices).
Calcium Flux Assays (FLIPR) with Cells Expressing Human Bradykinin B1 Receptor (hB1)
CHO-K1 cell line expressing human Bradykinin B1 receptor is purchased from Euroscreen (Gosselies, Belgium, with reference name hB1-D1). The cells are grown in Nutrient Mixture Ham's F12 (Sigma) containing 10% Foetal bovine serum (Sigma) and 400 μg/mL G418 (Sigma), 5 μg/mL puromycin (Sigma).
The effect of BSA on the potency of endothelin receptor antagonists have been described in the prior art (Wu-Wong, J. R. et al. (1997), JPET 281: 791-798). The teaching can be applied in analogy to testing the potency of Bradykinin B1 receptor antagonist in the FLIPR assays.
For the calcium flux assay, 80% confluent cells are detached from the culture vessels with Versene (Gibco), and seeded into 384-well plates (Cell binding Surface; Corning, NY; #3683) at a density of 15,000 cells per well. Cells are seeded in a volume of 50 μL in medium without antibiotics and incubated overnight in a humidified atmosphere with 5% CO2 at 37° C. […] The calcium indicator loaded cells are incubated at 37° C. for 2 hrs. Extracellular dye is then removed and each well is filled with 45 μL of assay buffer. Cell plates are kept in dark until used. Compound examples are assayed at 8 concentrations in triplicate. Serial 10-fold dilutions in 100% DMSO are made at a 100-times higher concentration than the final concentration, and then diluted 1:10 in assay buffer. 5 μL of each diluted compound is added to the well of cell plates (yielding final concentration with 1% DMSO), and incubated for 30 min at 28° C. before the addition of Bradykinin B1 receptor agonist on the FLIPR instrument.
The addition of agonist 20 μl per well to the assay plate is carried out on the FLIPR instrument while continuously monitoring Ca2+-dependent fluorescence at 538 nm. A peptide antagonist Lys-(Des-Arg-Leu)-Bradykinin (Bachem, Brackley) at 20 µM is used to determine the full inhibition as control.
Peak fluorescence is used to determine the response to agonist obtained at each concentration of Compound Examples by the following equation: % Response=100*(RFU(compound)−RFU(control))/(RFU(DMSO)−RFU(control))
RFU means relative fluorescence units.
Control means full inhibition by the peptide antagonist Lys-(Des-Arg-Leu)-Bradykinin at 20 µM.
The response values are plotted against the logarithm of the compound concentrations. The Compound Examples are tested in triplicates per plate and mean values are plotted in Excel XLfit to determine IC50 values, percentage of maximal inhibition and the Hill slopes.
(Calcium assays in cells follow changes in intracellular calcium, usually with a dye or a luminescent sensor.)
As for `CC[C@H](C)n1cc(-c2c(F)cc(NC(=O)C3(c4ccc(C(F)(F)F)cc4F)CC3)cc2C(=O)O)cn1` [Example 135, 2-{1-[(2S)-Butan-2-yl]-1H-pyrazol-4-yl}-3-fluoro-5-[({1-[2-fluoro-4-(trifluoromethyl)phenyl]cyclopropyl}carbonyl)amino]benzoic acid], the IC50 was found to be 33 nM. Next, `O=C(O)c1cc(NC(=O)C2(c3ccc(OC(F)(F)F)cc3F)CC2)cc(Cl)c1-c1ccc(C(F)F)nc1` [Example 103, 3-Chloro-2-[6-(difluoromethyl)pyridin-3-yl]-5-[({1-[2-fluoro-4-(trifluoromethoxy)phenyl]cyclopropyl}carbonyl)amino]benzoic acid]: 62 nM; `O=C(O)c1cc(NC(=O)C2(c3ccc(C(F)(F)F)cc3F)CC2)ccc1-c1cnn(C2CCCC2)c1` [Example 121, 2-(1-Cyclopentyl-1H-pyrazol-4-yl)-5-[({1-[2-fluoro-4-(trifluoromethyl)phenyl]cyclopropyl}carbonyl)amino]benzoic acid]: 18 nM. Next, `O=C(O)c1cc(NC(=O)C2(c3ccc(Cl)c(F)c3)CC2)ccc1-c1cnn(C2CCC2)c1` [Example 49, 5-({[1-(4-Chloro-3-fluorophenyl)cyclopropyl]carbonyl}amino)-2-(1-cyclobutyl-1H-pyrazol-4-yl)benzoic acid]: 47 nM; `CCC(F)(F)c1ccc(-c2c(C)cc(NC(=O)C3(c4ccc(C(F)(F)F)cc4F)CC3)cc2C(=O)O)cn1` [Example 112, 2-[6-(1,1-Difluoropropyl)pyridin-3-yl]-5-[({1-[2-fluoro-4-(trifluoromethyl)phenyl]cyclopropyl}carbonyl)amino]-3-methylbenzoic acid]: 240 nM. Next, `O=C(O)c1cc(NC(=O)C2(c3ccc(OC(F)(F)F)cc3F)CC2)ccc1-c1cnc(C2CCC2)s1` [Example 149, 2-(2-Cyclobutyl-1,3-thiazol-5-yl)-5-[({1-[2-fluoro-4-(trifluoromethoxy)phenyl]cyclopropyl}carbonyl)amino]benzoic acid]: 3.2 nM; `CCCn1cc(-c2ccc(NC(=O)C3(c4ccc(C(F)(F)F)cc4F)CC3)cc2C(=O)O)cn1` [Example 114, 5-[({1-[2-Fluoro-4-(trifluoromethyl)phenyl]cyclopropyl}carbonyl)amino]-2-(1-propyl-1H-pyrazol-4-yl)benzoic acid]: 85 nM; `O=C(O)c1cc(NC(=O)C2(c3ccc(F)c(Cl)c3)CC2)ccc1-c1cnn(C2CCC2)c1` [Example 56, 5-({[1-(3-Chloro-4-fluorophenyl)cyclopropyl]carbonyl}amino)-2-(1-cyclobutyl-1H-pyrazol-4-yl)benzoic acid]: 85 nM. Take `Cc1cc(NC(=O)C2(c3ccc(C(F)(F)F)cc3F)CC2)cc(C(=O)O)c1-c1ccc(C(F)(F)F)nc1` [Example 111, 5-[({1-[2-Fluoro-4-(trifluoromethyl)phenyl]cyclopropyl}carbonyl)amino]-3-methyl-2-[6-(trifluoromethyl)pyridin-3-yl]benzoic acid]: the IC50 came out at 2400 nM.

In the case of `CC(C)Cn1cc(-c2ccc(NC(=O)C3(c4ccc(Cl)cc4F)CC3)cc2C(=O)O)cn1` [Example 117, 5-({[1-(4-Chloro-2-fluorophenyl)cyclopropyl]carbonyl}amino)-2-(1-isobutyl-1H-pyrazol-4-yl)benzoic acid], the IC50 was determined as 56 nM. Regarding `O=C(O)c1cc(NC(=O)C2(c3ccc(Cl)cn3)CC2)ccc1-c1cnn(C2CCC2)c1` [Example 58, 5-({[1-(5-Chloropyridin-2-yl)cyclopropyl]carbonyl}amino)-2-(1-cyclobutyl-1H-pyrazol-4-yl)benzoic acid], the IC50 was 360 nM. Next, `CCc1ccc(-c2c(F)cc(NC(=O)C3(c4ccc(C(F)(F)F)cc4F)CC3)cc2C(=O)O)cn1` [Example 162, 2-(6-Ethylpyridin-3-yl)-3-fluoro-5-[({1-[2-fluoro-4-(trifluoromethyl)phenyl]cyclopropyl}carbonyl)amino]benzoic acid]: 14 nM; `CC(C)n1cc(-c2c(F)cc(NC(=O)C3(c4ccc(OC(F)(F)F)cc4)CC3)cc2C(=O)O)cn1` [Example 86, 3-Fluoro-2-[1-(propan-2-yl)-1H-pyrazol-4-yl]-5-[({1-[4-(trifluoromethoxy)phenyl]cyclopropyl}carbonyl)amino]benzoic acid]: 69 nM; `O=C(O)c1cc(NC(=O)C2(c3ccc(C(F)(F)F)cc3F)CC2)ccc1-c1cc2cccnc2s1` [Example 46, 5-[({1-[2-Fluoro-4-(trifluoromethyl)phenyl]cyclopropyl}carbonyl)amino]-2-(thieno[2,3-b]pyridin-2-yl)benzoic acid]: 58 nM. Next, `O=C(O)c1cc(NC(=O)C2(c3ccc(C(F)(F)F)cc3F)CC2)ccc1-c1cnn([C@@H]2CCOC2)c1` [Example 83, 5-[({1-[2-Fluoro-4-(trifluoromethyl)phenyl]cyclopropyl}carbonyl)amino]-2-{1-[(3R)-tetrahydrofuran-3-yl]-1H-pyrazol-4-yl}benzoic acid]: 560 nM. For the compound `CCc1ccc(-c2ccc(NC(=O)C3(c4ccc(C(F)(F)F)cc4F)CC3)cc2C(=O)O)cn1` [Example 160, 2-(6-Ethylpyridin-3-yl)-5-[({1-[2-fluoro-4-(trifluoromethyl)phenyl]cyclopropyl}carbonyl)amino]benzoic acid], the IC50 amounted to 21 nM.

Turning to `Cc1cc(NC(=O)C2(c3ccc(C(F)(F)F)cc3F)CC2)cc(C(=O)O)c1-c1ccc(C(F)F)nc1` [Example 109, 2-[6-(Difluoromethyl)pyridin-3-yl]-5-[({1-[2-fluoro-4-(trifluoromethyl)phenyl]cyclopropyl}carbonyl)amino]-3-methylbenzoic acid], the IC50 was determined as 770 nM. As to `CCn1cc(-c2ccc(NC(=O)C3(c4ccc(OC(F)(F)F)cc4F)CC3)cc2C(=O)O)cn1` [Example 69, 2-(1-Ethyl-1H-pyrazol-4-yl)-5-[({1-[2-fluoro-4-(trifluoromethoxy)phenyl]cyclopropyl}carbonyl)amino]benzoic acid], the IC50 was 28 nM. The same measure for `Cc1ccc(C2(C(=O)Nc3ccc(-c4cnn(CC(C)C)c4)c(C(=O)O)c3)CC2)c(F)c1` [Example 118, 5-({[1-(2-Fluoro-4-methylphenyl)cyclopropyl]carbonyl}amino)-2-(1-isobutyl-1H-pyrazol-4-yl)benzoic acid]: 130 nM. As for `Cn1cc(-c2c(F)cc(NC(=O)C3(c4ccc(OC(F)(F)F)cc4F)CC3)cc2C(=O)O)cn1` [Example 137, 3-Fluoro-5-[({1-[2-fluoro-4-(trifluoromethoxy)phenyl]cyclopropyl}carbonyl)amino]-2-(1-methyl-1H-pyrazol-4-yl)benzoic acid], the IC50 stood at 70 nM. The same measure for `O=C(O)c1cc(NC(=O)C2(c3cc(F)cc(Cl)c3)CC2)ccc1-c1cnn(C2CCC2)c1` [Example 57, 5-({[1-(3-Chloro-5-fluorophenyl)cyclopropyl]carbonyl}amino)-2-(1-cyclobutyl-1H-pyrazol-4-yl)benzoic acid]: 840 nM; for `O=C(O)c1cc(NC(=O)C2(c3cccc(Cl)c3F)CC2)ccc1-c1cnn(C2CCC2)c1` [Example 52, 5-({[1-(3-Chloro-2-fluorophenyl)cyclopropyl]carbonyl}amino)-2-(1-cyclobutyl-1H-pyrazol-4-yl)benzoic acid]: 740 nM.
